“Also recorded” adds a separate entry of the source.
Experiments:
Type in all cases: physicochemical
[1] = Solubility of Ketoconazole in USP dissolution apparatus before and after adding HP-β-Cyclodextrin (experiment 13)
Description: FIGS. 5A and 5B refer to a method to determine the solubility of low soluble API and determination of the solubility enhancing effect of an API: Cyclodextrin complex. Accurately weighted amounts of the low soluble API, higher than its intrinsic solubility in the volume and pH of the aqueous media, is added to a defined volume into a vessel of the standard dissolution test apparatus 1 or 2 as defined in US Pharmacopeia (chapter <711> “Dissolution”) at pH conditions suitable for the API as explained above and at standard temperature conditions at the site of absorption e.g., 37° C. and paddle rotation of 50 rpm, with either water or standard aqueous media at pH 1, pH 2, water or buffer pH 6.8. It is to be assured by visual check that the API is not or not fully dissolved to ensure that the added amount is higher than the intrinsic solubility of the API. The dissolution of the API is checked for between 30 Min. and 3 hours, and the amount dissolved is measured with a suitable assay method like UV or HPLC and plotted against time. After the initial phase at least a 100-time overage of the desired complex forming Cyclodextrin, in a suitable complex forming ratio with the API, is added to the dissolution vessel and the dissolution determination is continued for up to 24 hours until the amount of dissolved API reaches a plateau. […]

[2] = Solubility of the API in aqueous media
Description: A different aqueous media may be selected if required for stability reasons of the API; e.g., decompensation of the at pH 6.8 or change of the polymorph of the API, e.g. salt formation of a base under low pH conditions and vis versa base formation of API with a strong acid at higher pH values. Preferably, aqueous conditions are selected to maintain an unchanged API polymorph. The amount dissolved is determined either by measuring the concentration at the defined time points and the amount dissolved is plotted versus time. The amount at each time point is determined by a suitable assay method, e.g., UV for API with sufficient extinction coefficient or HPLC with low extinction coefficient.

[3] = Solubility of Cannabidiol in USP dissolution apparatus before and after adding HP-β-Cyclodextrin (experiment 12)
Description: FIGS. 5A and 5B refer to a method to determine the solubility of low soluble API and determination of the solubility enhancing effect of an API: Cyclodextrin complex. Accurately weighted amounts of the low soluble API, higher than its intrinsic solubility in the volume and pH of the aqueous media, is added to a defined volume into a vessel of the standard dissolution test apparatus 1 or 2 as defined in US Pharmacopeia (chapter <711> “Dissolution”) at pH conditions suitable for the API as explained above and at standard temperature conditions at the site of absorption e.g., 37° C. and paddle rotation of 50 rpm, with either water or standard aqueous media at pH 1, pH 2, water or buffer pH 6.8. It is to be assured by visual check that the API is not or not fully dissolved to ensure that the added amount is higher than the intrinsic solubility of the API. The dissolution of the API is checked for between 30 Min. and 3 hours, and the amount dissolved is measured with a suitable assay method like UV or HPLC and plotted against time. […]
An accurately weighted amount of Cannabidiol was dissolved in ethanol resulting in a solution containing 5 mg/ml. […] The amount of dissolved CBD was monitored. […]

## CC(=O)N1CCN(c2ccc(OCC3COC(Cn4ccnc4)(c4ccc(Cl)cc4Cl)O3)cc2)CC1 (centres unmarked) [Ketoconazole]
[1]; 500 ml aqueous media pH 6.8
  solubility of Ketoconazole after overage of HP-β-Cyclodextrin: significantly increased
[1]; 500 ml aqueous media pH 6.8, added as powder
  solubility of Ketoconazole before Cyclodextrin addition: visibly insoluble
[2]; pH 2
  solubility in aqueous media (words): low soluble
[2]; pH 6.8
  solubility in aqueous media (words): very insoluble; also recorded: less soluble; also recorded: very low soluble

## C=C(C)[C@@H]1CCC(C)=C[C@H]1c1c(O)cc(CCCCC)cc1O [CBD, Cannabidiol]
[3]; 500 ml aqueous media pH 2
  solubility of CBD after overage of HP-β-Cyclodextrin: significantly increased
[3]; 500 ml aqueous media pH 2, added as solution in ethanol
  solubility of CBD before Cyclodextrin addition: almost insoluble
[2]; any pH or pH not given
  solubility in aqueous media (words): very insoluble
[2]; any pH or pH not given, listed as Cannabidiol
  solubility in aqueous media (words): insoluble

Reference: patent US20240350642A1, “SUSTAINED RELEASE DOSAGE FORMS FOR LOW SOLUBILITY COMPOUNDS AND METHODS FOR PREPARING OF THESE SUSTAINED RELEASE DOSAGE FORMS” (priority 2023, published 2024)
